Results taken from patent publication US9783552B2, “Soluble guanylate cyclase activators” (MERCK SHARP & DOHME CORP., priority 2013, dated 2017).

Biological target: T1, sGC α1/β1 heterodimer (Homo sapiens, UniProt Q02108+Q02153)
T1 construct: expressed in transfected cells
T1 sequence (Q02108 1-690): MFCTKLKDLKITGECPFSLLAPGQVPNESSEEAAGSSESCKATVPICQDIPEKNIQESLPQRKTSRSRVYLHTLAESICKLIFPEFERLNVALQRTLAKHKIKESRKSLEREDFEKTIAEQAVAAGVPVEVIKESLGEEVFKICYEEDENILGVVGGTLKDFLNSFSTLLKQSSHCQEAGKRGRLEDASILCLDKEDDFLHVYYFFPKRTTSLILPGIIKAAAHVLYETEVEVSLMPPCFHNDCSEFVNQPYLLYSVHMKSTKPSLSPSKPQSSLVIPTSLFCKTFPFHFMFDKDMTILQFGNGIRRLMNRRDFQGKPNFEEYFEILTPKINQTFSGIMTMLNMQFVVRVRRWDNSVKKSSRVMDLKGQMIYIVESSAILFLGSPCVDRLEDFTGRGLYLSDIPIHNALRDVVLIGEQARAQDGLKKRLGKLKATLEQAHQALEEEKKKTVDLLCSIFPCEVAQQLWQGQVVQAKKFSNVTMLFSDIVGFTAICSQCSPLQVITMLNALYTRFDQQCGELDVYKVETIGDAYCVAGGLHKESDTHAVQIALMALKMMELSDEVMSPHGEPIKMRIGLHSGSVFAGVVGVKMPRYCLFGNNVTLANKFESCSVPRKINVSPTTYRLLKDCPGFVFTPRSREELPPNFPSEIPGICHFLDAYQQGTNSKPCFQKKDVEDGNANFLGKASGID
T1 sequence (Q02153 1-619): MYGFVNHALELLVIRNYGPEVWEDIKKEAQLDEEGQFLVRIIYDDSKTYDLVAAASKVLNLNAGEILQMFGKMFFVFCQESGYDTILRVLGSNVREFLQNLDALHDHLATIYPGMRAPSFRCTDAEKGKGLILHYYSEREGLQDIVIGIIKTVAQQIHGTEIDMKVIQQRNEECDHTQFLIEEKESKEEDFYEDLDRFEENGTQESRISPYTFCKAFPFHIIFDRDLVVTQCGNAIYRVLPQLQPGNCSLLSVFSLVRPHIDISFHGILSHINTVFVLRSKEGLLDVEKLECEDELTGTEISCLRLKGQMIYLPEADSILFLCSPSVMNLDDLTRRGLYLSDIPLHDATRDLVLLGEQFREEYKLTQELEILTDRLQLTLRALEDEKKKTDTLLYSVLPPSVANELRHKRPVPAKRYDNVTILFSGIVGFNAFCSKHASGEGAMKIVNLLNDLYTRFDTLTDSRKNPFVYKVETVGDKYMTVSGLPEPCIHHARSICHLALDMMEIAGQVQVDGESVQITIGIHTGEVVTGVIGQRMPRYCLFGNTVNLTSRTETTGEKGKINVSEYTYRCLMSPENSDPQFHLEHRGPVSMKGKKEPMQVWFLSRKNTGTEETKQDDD
Assay: Cell-Based sGC Functional Assay (CASA Assay)
Conditions: CHO-K1/sGC cells; for EC50: intracellular cGMP by HTRF, 1 hr at 37° C., IP from 4P fit, presence or absence of 1 μM DETA-NO not given; for Emax: cGMP as percentage of maximum cGMP production of Compound A (=100% activation), read-out: % ACT (percent activation)
Excerpt: Biological Assays: Cell-Based sGC Functional Assay (CASA Assay)
sGC is a heme-containing enzyme that converts GTP to secondary messenger cGMP. Increases in cGMP levels affect several physiological processes including vasorelaxation through multiple downstream pathways. […] Heme-dependent activators (HDAs) preferentially activate sGC containing a ferrous heme group. To determine the effect of sGC activators on enzyme activity, the CASA assay was developed to monitor the generation of cGMP in a cell line that stably expresses the heterodimeric sGC protein.
A CHO-K1 cell line stably expressing the sGC α1/β1 heterodimer was generated using a standard transfection protocol. CHO-K1 cells were transfected with plasmids pIREShyghsGCα1 and pIRESneo-hsGCβ1 simultaneously using FUGENE reagent. Clones that stably express both subunits were selected with hygromycin and neomycin for ˜2 weeks. Clone #7 was chosen for the assay and was designated CHO-K1/sGC. CHO-K1/sGC cells were maintained in F-K12 medium containing 10% heat-inactivated Fetal Bovine Serum (FBS), 100 μg/mL penicillin/streptomycin, 0.5 mg/mL hygromycin and 0.25 mg/mL G418. The cells were then cryopreserved in LN2. On the day of the assay, cells were thawed and resuspended in EBSS Assay Buffer (EAB, Sigma, E3024) supplemented with 5 mM MgCl2, 10 mM HEPES (4-(2-hydroxyethyl)piperazine-1-ethanesulfonic acid) and 0.05% BSA (bovine serum albumin) and cell density was then adjusted to 4×10^5/mL with EAB. IBMX (3-isobutyl-1-methylxanthin, 0.5 mM) was added to inhibit degradation of cGMP. Compounds were diluted from DMSO stock solutions and added to the assay at a final DMSO concentration of 2.5%. Cells were incubated with compounds in the presence and absence of 1 μM of Diethylenetriamine/nitric oxide adduct (DETA-NO; Sigma, 17018) for 1 hr at 37° C. At the end of the incubation period, the reaction was terminated and the cells were lysed with the detection reagents from Cisbio Kits. The level of intracellular cGMP was determined using an HTRF-based assay kit (CisBio, 62GM2PEC), which detects the displacement of a fluorescence labeled cGMP from its specific antibody. The cGMP produced by test compounds was directly compared to the maximum cGMP production (this value was set to equal 100% activation) of the published sGC-HDA Compound A:
[drawing 123] (Example 1 in WO 2010/065275, published Jun. 10, 2010). The test compounds' activity was then expressed as a percentage of Compound A, the standard in every experiment. This percent activation was calculated either in the presence or absence of DETA-NO which was then plotted. IP and maximum fold induction was derived using ADA analysis software for 4P fit.

Compound: CCn1ncc2c(-c3nc(N)c4c(n3)NC(=O)C4(C(=O)NC3CC3)C3CC3)nc(CCC(F)(F)C(F)(F)F)nc21 (single isomer, unassigned) [Example 38, 4-Amino-N,5-dicyclopropyl-2-(1-ethyl-6-(3,3,4,4,4-pentafluorobutyl)-1H-pyrazolo[3,4-d]pyrimidin-4-yl)-6-oxo-6,7-dihydro-5H-pyrrolo[2,3-d]pyrimidine-5-carboxamide]
- EC50: 648 nM
- Emax: 112%

Compound: [2H]C([2H])([2H])n1ncc2c(-c3nc(N)c4c(n3)NC(=O)C4(C)C(=O)NCC)nc(CCC(F)(F)C(F)(F)F)nc21 (single isomer, unassigned) [Example 39, 4-Amino-N-ethyl-5-methyl-2-(6-(3,3,4,4,4-pentafluorobutyl)-1-trideuteriomethyl-1H-pyrazolo[3,4-d]pyrimidin-4-yl)-6-oxo-6,7-dihydro-5H-pyrrolo[2,3-d]pyrimidine-5-carboxamide]
- EC50: 43 nM
- Emax: 104%

Compound: Cn1ncc2c(-c3nc(N)c4c(n3)NC(=O)C4(C)C(=O)NC3CC3)nc(Cc3cccc(F)c3F)nc21 (single isomer, unassigned) [Example 40, 4-Amino-N-cyclopropyl-2-(6-(2,3-difluorobenzyl)-1-methyl-1H-pyrazolo[3,4-d]pyrimidin-4-yl)-5-methyl-6-oxo-6,7-dihydro-5H-pyrrolo[2,3-d]pyrimidine-5-carboxamide]
- EC50: 55 nM
- Emax: 121%

Compound: [2H]C([2H])([2H])n1ncc2c(-c3nc(N)c4c(n3)NC(=O)C4(C(=O)Nc3ccccn3)C3CC3)nc(CCC(F)(F)C(F)(F)F)nc21 (single isomer, unassigned) [Example 41, 4-Amino-5-cyclopropyl-2-(6-(3,3,4,4,4-pentafluorobutyl)-1-trideuteriomethyl-1H-pyrazolo[3,4-d]pyrimidin-4-yl)-6-oxo-N-(pyridin-2-yl)-6,7-dihydro-5H-pyrrolo[2,3-d]pyrimidine-5-carboxamide]
- EC50: 77 nM
- Emax: 100%

Compound: [2H]C([2H])([2H])n1ncc2c(-c3nc(N)c4c(n3)NC(=O)C4(C)C(=O)Nc3cnn(C)c3)nc(CCC(F)(F)C(F)(F)F)nc21 (single isomer, unassigned) [Example 42, 4-amino-5-methyl-N-(1-methyl-1H-pyrazol-4-yl)-2-(6-(3,3,4,4,4-pentafluorobutyl)-1-trideuteriomethyl-1H-pyrazolo[3,4-d]pyrimidin-4-yl)-6-oxo-6,7-dihydro-5H-pyrrolo[2,3-d]pyrimidine-5-carboxamide]
- EC50: 111 nM
- Emax: 134%

Compound: [2H]C([2H])([2H])n1ncc2c(-c3nc(N)c4c(n3)NC(=O)C4(C)c3ccc(O)cc3)nc(CCC(F)(F)C(F)(F)F)nc21 (single isomer, unassigned) [Example 43, 4-Amino-5-(4-hydroxyphenyl)-5-methyl-2-(6-(3,3,4,4,4-pentafluorobutyl)-1-trideuteriomethyl-1H-pyrazolo[3,4-d]pyrimidin-4-yl)-5H-pyrrolo[2,3-d]pyrimidin-6(7H)-one]
- EC50: 209 nM
- Emax: 110%

Compound: [2H]C([2H])([2H])n1ncc2c(-c3nc(N)c4c(n3)NC(=O)C4(C)c3ccc(-c4nnco4)cc3)nc(CCC(F)(F)C(F)(F)F)nc21 (single isomer, unassigned) [Example 45, 5-(4-(1,3,4-Oxadiazol-2-yl)phenyl)-4-amino-5-methyl-2-(1-methyl-6-(3,3,4,4,4-pentafluorobutyl)-1H-pyrazolo[3,4-d]pyrimidin-4-yl)-5H-pyrrolo[2,3-d]pyrimidin-6(7H)-one]
- EC50: 716 nM
- Emax: 138%

Compound: [2H]C([2H])([2H])n1ncc2c(-c3nc(N)c4c(n3)NC(=O)C4(C)c3ccc(-c4cnn(C)c4)cc3)nc(CCC(F)(F)C(F)(F)F)nc21 (single isomer, unassigned) [Example 46, 4-Amino-5-methyl-5-(4-(1-methyl-1H-pyrazol-4-yl)phenyl)-2-(6-(3,3,4,4,4-pentafluorobutyl)-1-trideuteriomethyl-1H-pyrazolo[3,4-d]pyrimidin-4-yl)-5H-pyrrolo[2,3-d]pyrimidin-6(7H)-one]
- EC50: 90 nM
- Emax: 91%

Compound: [2H]C([2H])([2H])n1ncc2c(-c3nc(N)c4c(n3)NC(=O)C4(C)c3ccc(C#N)cc3)nc(CCC(F)(F)C(F)(F)F)nc21 (single isomer, unassigned) [Example 47, 4-(4-Amino-5-methyl-2-(6-(3,3,4,4,4-pentafluorobutyl)-1-trideuteriomethyl-1H-pyrazolo[3,4-d]pyrimidin-4-yl)-6-oxo-6,7-dihydro-5H-pyrrolo[2,3-d]pyrimidin-5-yl)benzonitrile]
- EC50: 30 nM
- Emax: 95%

Compound: Cn1ncc2c(-c3nc(N)c4c(n3)NC(=O)C4(C)C#N)nc(CCC(F)(F)C(F)(F)F)nc21 (single isomer, unassigned) [Example 49, 4-Amino-5-methyl-2-(1-methyl-6-(3,3,4,4,4-pentafluorobutyl)-1H-pyrazolo[3,4-d]pyrimidin-4-yl)-6-oxo-6,7-dihydro-5H-pyrrolo[2,3-d]pyrimidine-5-carbonitrile]
- EC50: 248 nM
- Emax: 105%

Compound: Cn1ncc2c(-c3nc(N)c4c(n3)NC(=O)C4(C)N)nc(CCC(F)(F)C(F)(F)F)nc21 (single isomer, unassigned) [Example 50, 4,5-Diamino-5-methyl-2-(1-methyl-6-(3,3,4,4,4-pentafluorobutyl)-1H-pyrazolo[3,4-d]pyrimidin-4-yl)-5H-pyrrolo[2,3-d]pyrimidin-6(7H)-one]
- EC50: 1240 nM
- Emax: 101%

Compound: COC1(C)C(=O)Nc2nc(-c3nc(CCC(F)(F)C(F)(F)F)nc4c3cnn4C)nc(N)c21 (single isomer, unassigned) [Example 56, 4-Amino-5-methoxy-5-methyl-2-(1-methyl-6-(3,3,4,4,4-pentafluorobutyl)-1H-pyrazolo[3,4-d]pyrimidin-4-yl)-5H-pyrrolo[2,3-d]pyrimidin-6(7H)-one]
- EC50: 44 nM
- Emax: 104%

Compound: Cn1nc(Cl)c2c(-c3nc(N)c4c(n3)NC(=O)C4(C)c3ccc(F)cc3)nc(CCC(F)(F)C(F)(F)F)nc21 (single isomer, unassigned) [Example 58, 4-Amino-2-(3-chloro-1-methyl-6-(3,3,4,4,4-pentafluorobutyl)-1H-pyrazolo[3,4-d]pyrimidin-4-yl)-5-(4-fluorophenyl)-5-methyl-5H-pyrrolo[2,3-d]pyrimidin-6(7H)-one]
- EC50: 632 nM
- Emax: 70%
